Test results published in US6664224B2, “Quaternary ammonium salt and process for the preparation thereof” (priority 2000, dated 2003).
Where two headings read alike, the source gives them in different places.

What was measured:
[1] = test system: Escherichia coli K12 W 3110; experiment: Minimum development inhibiting concentration (MIC) against bacteria, broth dilution method; format: cell-based; conditions: for MIC Escherichia coli K12 W 3110: 37° C. 24 hours; for MIC: Escherichia coli, K12W3110, 37° C. 24 hours
Procedure: A bacteria solution in stationary state which had been adjusted with a nutrient broth according to an ordinary broth dilution method such that the concentration of bacterial suspension reached 10^6 cell/ml was added to chemical solutions having concentrations which vary stepwise where it was then allowed to stand at a temperature of 37° C. for 24 hours for culture. The bacteria solution was then examined to see if the proliferation of bacteria occurred. Thus, MIC was determined.
Escherichia coli K12 W 3110 was used as a sample bacterium. Compounds obtained in Examples 1 to 9 and benzalkonium chloride prepared in Comparative Example 1 were used as test samples.
The compounds obtained in Examples 10 to 19 and benzalkonium chloride were determined for MIC value against Escherichia coli K12 W 3110 in the same manner as in Test Example 3.

[2] = test system: Erythrocyte; experiment: Minimum hemolytic activity concentration against erythrocyte; format: cell-based; conditions: human erythrocyte, 37° C. 1 hour, O.D.540, 50% hemolysis
Procedure: Human blood was collected. The sample blood was then mixed with the equal amount of alsebar solution (glucose: 2.05 g; NaCl: 0.42 g; sodium citrate: 0.8 g; citric acid: 0.55 g; pH: 6.1). The mixture was then stored at a temperature of 4° C. Shortly before used for experiment, the alsebar stored blood was subjected to centrifugal separation. Thus, the supernatant liquid and the leukocyte layer on the erythrocyte were removed. To the erythrocyte was then added PBS in an amount of […] that of the erythrocyte to obtain a 50% erythrocyte. 10 μl of the 50% erythrocyte was then mixed with 990 μl of each of chemicals which had been diluted with PBS in amounts varying stepwise. The erythrocyte was acted upon by the chemical at a temperature of 37° C. for 1 hour. The mixture was then subjected to centrifugal separation. The supernatant liquid was collected for the measurement of the optical density at 540 nm (O.D.540). Separately, the foregoing procedure was followed except that no chemicals were used to prepare a 0% hemolytic control. The foregoing procedure was followed except that Milliq water was used instead of PBS to prepare a 100% hemolytic control. For the minimum hemolytic activity concentration of chemical, the minimum concentration at which the hemolytic concentration is […] was determined.

[3] = test system: Bacillus substilis ATCC 6633; experiment: Minimum bactericidal concentration (MBC) against bacteria; format: cell-based, Bacillus subtilis; conditions: culture 37° C. 24 hours
Procedure: (§1) A bacteria solution in the initial stage of logarithmic productive phase which had been adjusted with a nutrient broth according to an ordinary sterilized water dilution method such that the concentration of bacterial suspension reached 10^6 cell/ml was brought into contact with chemical solutions having concentrations which vary stepwise at a temperature of 30° C. for 30 minutes, and then transplanted to a nutrient broth where it was then allowed to stand at a temperature of 37° C. for 24 hours for culture. The nutrient broth was then examined to see if the proliferation of bacteria occurred. Thus, MBC was determined.
(§2) Five kinds of gram-negative bacteria and four kinds of gram-positive bacteria were used as sample bacteria.
(§3) BAMP-6 (Example 12), BAMD-6,8 (Example 13), BAMT-6 (Example 17) and benzalkonium chloride (Comparative Example 1) were determined for MBC value against 5 kinds of gram-negative bacteria and 4 kinds of gram-positive bacteria in the same manner as in Test Example 1.

[4] = test system: Staphylococcus aureus IFO 12732; experiment: as above; format: cell-based; conditions: culture 37° C. 24 hours
Procedure: as §1, §2, §3

[5] = test system: Klebsiella pneumoniae ATCC 13883; experiment: as above; format: cell-based; conditions: culture 37° C. 24 hours
Procedure: as §1, §2, §3

[6] = test system: Escherichia coli K12 W 3110; experiment: as above; format: cell-based; conditions: culture 37° C. 24 hours
Procedure: as §1, §2, §3

[7] = test system: Bacillus subtilis IFO 3134; experiment: as above; format: cell-based; conditions: culture 37° C. 24 hours
Procedure: as §1, §2, §3

[8] = test system: Pseudomonas aeruginosa ATCC 27583; experiment: as above; format: cell-based; conditions: culture 37° C. 24 hours
Procedure: as §1, §2, §3

[9] = test system: Bacillus cereus IFO 3001; experiment: as above; format: cell-based; conditions: culture 37° C. 24 hours
Procedure: as §1, §2, §3

[10] = test system: Proteus rettgeri NIT 96; experiment: as above; format: cell-based; conditions: culture 37° C. 24 hours
Procedure: as §1, §2, §3

[11] = test system: Escherichia coli K12 OUT 8401; experiment: as above; format: cell-based; conditions: culture 37° C. 24 hours
Procedure: as §1, §2, §3

[12] = test system: Pseudomonas aeruginosa ATCC27583; experiment: MIC by agar plate dilution method; format: cell-based; conditions: P. aeruginosa, 37° C. 24 hours
Procedure: (§4) MIC value was determined by an agar plate dilution method according to the Law of Japanese Society of Chemotherapy. In some detail, a bacteria solution in stationary state which had been adjusted with a nutrient broth such that the concentration of bacterial suspension reached 10^6 cell/ml was added to agar culture media containing chemical solutions having concentrations which vary in two stages where it was then allowed to stand at a temperature of 37° C. for 24 hours for culture. The bacteria solution was then examined to see if the proliferation of bacteria occurred. Thus, MIC was determined.
(§5) The following three kinds of bacteria were used as sample bacteria:
Pseudomonas aeruginosa ATCC27583 (P. auruginosa); and […]

[13] = test system: Aspergillus niger IFO 6431; experiment: Minimum development inhibiting concentration (MIC) against fungi; format: cell-based; conditions: A. niger; spore solution, 27° C. 1 week
Procedure: (§6) A sample fungus which had been pre-cultured was diluted with a wetting agent-containing sterilized water according to an ordinary broth dilution method to prepare a spore solution. 1 ml of the spore solution was then mixed with 1 ml of each of chemical solutions having concentrations which vary stepwise. The mixture was then cultured at a temperature of 27° C. in an incubator for 1 week. The culture was then examined for turbidity to see if the proliferation of fungus occurred. The minimum concentration at which no turbidity occurs was defined to be MIC.
(§7) Aspergillus niger IFO 6431 (A. niger) and Candida albicans ATCC10231 (C. albicans) were used as sample microorganisms.

[14] = test system: Candida albicans ATCC10231; experiment: as above; format: cell-based; conditions: C. albicans; spore solution, 27° C. 1 week
Procedure: as §6, §7

[15] = test system: Staphylococcus aureus IFO 12732; experiment: MIC by agar plate dilution method; format: cell-based; conditions: S. aureus, 37° C. 24 hours
Procedure: as §4, §5
Staphylococcus aureus IFO 12732 (S. aureus)

[16] = test system: Escherichia coli K12 W 3110; experiment: MIC by agar plate dilution method; format: cell-based; conditions: E. coli, 37° C. 24 hours
Procedure: as §4, §5
Escherichia coliK12 W 3110 (E. coli);

## 1,4-bis(N,N-butyl-N-methylammoniomethyl)-2,3,5,6-tetramethylphenylene dichloride [BAMD-4]
[1]
  MIC Escherichia coli K12 W 3110: 16 ppm

## 1,4-bis(N,N-dioctyl-N-methylammoniomethyl)-2,3,5,6-tetramethylphenylene dichloride [BAMD-8]
[1]
  MIC Escherichia coli K12 W 3110: 1 ppm

## 1,4-bis(N,N-dioctyl-N-methylammoniomethyl)phenylene di-p-toluenesulfonate [Example 4BAMP-8S]
[1]
  MIC Escherichia coli K12 W 3110: 1 ppm

## 1,4-bis(N,N-dipentyl-N-methylammoniomethyl)phenylene di-p-tolyenesulfonate [Example 4BAMP-5S]
[1]
  MIC Escherichia coli K12 W 3110: 16 ppm
[2]
  Minimum hemolytic activity concentration Erythrocyte: 400 ppm

## 1,4-bis(N-octyl-N-hexyl-N-methylammoniomethyl)-2,3,5,6-tetramethylphenylene dichloride [BAMD-6, 8]
[3]; contact 30° C. 30 minutes
  MBC: <2 ppm
[4]; contact 30° C. 30 minutes
  MBC: <2 ppm
[5]; contact 30° C. 30 minutes
  MBC: <2 ppm
[6]; contact 30° C. 30 minutes
  MBC: <2 ppm
[7]; contact 30° C. 30 minutes
  MBC: <2 ppm
[8]; contact 30° C. 30 minutes
  MBC: <2 ppm
[9]; contact 30° C. 30 minutes
  MBC: <2 ppm
[10]; contact 30° C. 30 minutes
  MBC: <2 ppm
[11]; contact 30° C. 30 minutes
  MBC: <2 ppm
[1]
  MIC Escherichia coli K12 W 3110: 1 ppm

## 1,4-bis(N-octyl-N-hexyl-N-methylammoniomethyl)phenylene dibromide [4BAMP-6, 8B]
[12]
  MIC: <2 ppm
[13]
  MIC: 8 ppm
[14]
  MIC: <2 ppm
[15]
  MIC: <2 ppm
[16]
  MIC: 8 ppm

## CCCCCC[N+](C)(CCCC)Cc1ccc(C[N+](C)(CCCC)CCCCCC)cc1.[I-].[I-] (stereo not drawn) [4BAMP-4, 6I, 1,4-bis(N-butyl-N-hexyl-N-methylammoniomethyl)phenylene diiodide]
[1]
  MIC Escherichia coli K12 W 3110: 16 ppm

## CCCCCCCC[N+](C)(CCCC)Cc1ccc(C[N+](C)(CCCC)CCCCCCCC)cc1.[I-].[I-] (stereo not drawn) [4BAMP-4, 8I, 1,4-bis(N-butyl-N-octyl-N-methylammoniomethyl)phenylene diiodide]
[1]
  MIC Escherichia coli K12 W 3110: 2 ppm

## CCCCC[N+](C)(CCCCC)Cc1c(C)c(C)c(C[N+](C)(CCCCC)CCCCC)c(C)c1C.[Cl-].[Cl-] [BAMD-5, 1,4-bis(N,N-dipentyl-N-methylammoniomethyl)-2,3,5,6-tetramethylphenylene dichloride]
[1]
  MIC Escherichia coli K12 W 3110: 2 ppm
[2]
  Minimum hemolytic activity concentration Erythrocyte: 800 ppm

## CCCC[N+](C)(CCCC)Cc1c(C)cc(C)c(C[N+](C)(CCCC)CCCC)c1C.[Cl-].[Cl-] [BAMT-4, 2,4-bis(N,N-dibutyl-N-methylammoniomethyl)-1,3,5-trimethylbenzene dichloride]
[1]
  MIC: 8 µg/mL

## CCCCC[N+](C)(CCCCC)Cc1c(C)cc(C)c(C[N+](C)(CCCCC)CCCCC)c1C.[Cl-].[Cl-] [BAMT-5, 2,4-bis(N,N-dipentyl-N-methylammoniomethyl)-1,3,5-trimethylbenzene dichloride]
[1]
  MIC: 2 µg/mL
[2]
  Minimum hemolytic activity concentration Erythrocyte: 800 ppm

## CCCCCC[N+](C)(CCCCCC)Cc1c(C)cc(C)c(C[N+](C)(CCCCCC)CCCCCC)c1C.[Cl-].[Cl-] [BAMT-6, 2,4-bis(N,N-dihexyl-N-methylammoniomethyl)-1,3,5-trimethylbenzene dichloride]
[3]; ATCC6633, contact 30° C. 30 minutes, read-out: MBC
  MBC: < 2 µg/mL
[4]; IFO12732, contact 30° C. 30 minutes, read-out: MBC
  MBC: < 2 µg/mL
[5]; ATCC13883, contact 30° C. 30 minutes, read-out: MBC
  MBC: < 2 µg/mL
[6]; K12W3110, contact 30° C. 30 minutes, read-out: MBC
  MBC: 4 µg/mL
[7]; IFO3134, contact 30° C. 30 minutes, read-out: MBC
  MBC: < 2 µg/mL
[8]; ATCC27583, contact 30° C. 30 minutes, read-out: MBC
  MBC: 4 µg/mL
[9]; IFO3001, contact 30° C. 30 minutes, read-out: MBC
  MBC: < 2 µg/mL
[10]; Providencia rettgeri, NIT96, contact 30° C. 30 minutes, read-out: MBC
  MBC: < 2 µg/mL
[11]; K12OUT8401, contact 30° C. 30 minutes, read-out: MBC
  MBC: < 2 µg/mL
[1]
  MIC: 1 µg/mL
[2]
  Minimum hemolytic activity concentration Erythrocyte: 400 ppm

## CCCCCCCC[N+](C)(CCCCCC)Cc1c(C)cc(C)c(C[N+](C)(CCCCCC)CCCCCCCC)c1C.[Cl-].[Cl-] (stereo not drawn) [BAMT-6, 8, 2,4-bis(N-octyl-N-hexyl-N-methylammoniomethyl)-1,3,5-trimethylbenzene dichloride]
[1]
  MIC: 1 µg/mL

## CCCCCCCC[N+](C)(CCCCCCCC)Cc1c(C)cc(C)c(C[N+](C)(CCCCCCCC)CCCCCCCC)c1C.[Cl-].[Cl-] [BAMT-8, 2,4-bis(N,N-dioctyl-N-methylammoniomethyl)-1,3,5-trimethylbenzene dichloride]
[1]
  MIC: 1 µg/mL

## CCCCCC[N+](C)(CCCCCC)Cc1ccccc1C[N+](C)(CCCCCC)CCCCCC.[Cl-].[Cl-] [Example 2BAMP-6C, 1,2-bis(N,N-dihexyl-N-methylammoniomethyl)phenylene dichloride]
[1]
  MIC Escherichia coli K12 W 3110: 1 ppm

## CCCCCC[N+](C)(CCCCCC)Cc1cccc(C[N+](C)(CCCCCC)CCCCCC)c1.[Cl-].[Cl-] [Example 3BAMP-6C, 1,3-bis(N,N-dihexyl-N-methylammoniomethyl)phenylene dichloride]
[1]
  MIC Escherichia coli K12 W 3110: 1 ppm

## CCCCCCCCCCCC[N+](C)(C)Cc1ccc(C[N+](C)(C)CCCCCCCCCCCC)cc1.[Cl-].[Cl-] [Example 4BADMP-12C, 1,4-bis(N-dodecyl-N,N-dimethylammoniomethyl)phenylene dichloride, reference compound]
[2]
  Minimum hemolytic activity concentration Erythrocyte: 12.5 ppm

## CCCCCCCC[N+](C)(CCCCCCCC)Cc1ccc(C[N+](C)(CCCCCCCC)CCCCCCCC)cc1.[Cl-].[Cl-] [Example 4BAMP-8C, 1,4-bis(N,N-dioctyl-N-methylammoniomethyl)phenylene dichloride]
[1]
  MIC Escherichia coli K12 W 3110: 1 ppm

## CCCCCCCC[n+]1ccc(SCc2ccc(CSc3cc[n+](CCCCCCCC)cc3)cc2)cc1.[I-].[I-] [Example I-8, 4,4′-(p-xylyldithio)-bis(1-octylpyridinium iodide), reference compound]
[2]
  Minimum hemolytic activity concentration Erythrocyte: 50 ppm
